Measured values published in US20240327446A1, “DEUTERATED NUCLEOSIDE COMPOUNDS AND USE THEREOF” (MEDSHINE DISCOVERY INC., priority 2022, published 2024).

Legend:
[1] = tested on: human coronavirus (HCoV) 229E; experiment: In vitro anti-coronavirus activity test, cytopathic effect (CPE) assay; assay type: cell-based, human coronavirus (HCoV) 229E in MRC5 cells; conditions: MRC5, 72 h, read-out: EC50 (median effective concentration)
Method: (§1) To detect the in vitro anti-human coronavirus (HCOV) 229E activity of the compound using the cytopathic effect (CPE) assay, and simultaneously evaluate the cytotoxicity of the compound.
(§2) The test compound was prepared as a 20 mM stock solution using DMSO. The initial testing concentration of the test compound was 50 μM, tested at 8 concentrations with 4-fold gradient dilutions, in duplicate wells. The control compound Remdesivir would be provided by WuXi AppTec. Remdesivir would be tested at 8 concentrations with 3-fold gradient dilutions, in duplicate wells.
(§3) MRC5 cells and coronavirus HCoV 229E were purchased from ATCC. MRC5 cells were cultured in EMEM (Sigma) culture medium supplemented with 10% fetal bovine serum (Excell), 1% double antibiotic (Hyclone), 1% L-glutamine (Gibco), and 1% non-essential amino acids (Gibco). […]
(§4) Cells were seeded in a 96-well microplate at a specific density (Table 1) and cultured overnight in a 5% CO2, 37° C. incubator. […] Cell viability was detected using the CellTiter Glo (Promega) cell viability assay kit. […]
Inhibition rate (%)=(test well reading value−average value of virus control)/(average value of cell control−average value of virus control)×100 […]

[2] = in vitro; assay type: cell-based; conditions: human
Method: as §1, §2, §3, §4
Cell viability (%)=(test well reading value−average value of culture medium control)/(average value of cell control−average value of culture medium control)×100 […]

Structure (SMILES): [2H][C@@]1(O)[C@H](O)[C@@H](COC(=O)C(C)C)O[C@@]1(C#N)c1ccc2c(N)ncnn12 [Compound 1]
- EC50 [1]: 0.22 µM
- CC50 at 3 days [2]: > 50 µM
